Measured values from patent publication US20240400555A1 (Initial Therapeutics, Inc., priority 2023, published 2024).

The compounds below were run on MV-4-11 cells (assay: Cell Viability Assay in MV-4-11 Cells). Conditions: Homo sapiens, MV4-11, 72 h, MV-4-11 cells, 72 h, Cell-Titer Glo; read-out: IC50.
Type: cell-based
Method: MV-4-11 cells (ATCC) were seeded into sterile 96-well flat clear bottom white polystyrene TC-treated microplates (Corning) at 7,000 cells/well in 150 μL complete growth medium (Iscove's Modified Dulbecco's Medium (IMDM) (Gibco), 10% Heat Inactivated Fetal Bovine Serum (HyClone), 1% Penicillin-Streptomycin-L-Glutamine (HyClone), 1% GlutaMAX (Gibco)). […] After 72 h incubation, plates were removed from incubators and allowed to equilibrate to room temperature (˜10 min) before adding 50 μL per well Cell-Titer Glo reagent (Promega) using a WellJet (Integra Biosciences) dispenser. Plates were then incubated at room temperature for 2-20 min prior to measurement of luminescence on an Envision (Perkin Elmer) plate reader. Data were normalized to DMSO (100% viability) and analyzed using a non-linear four-parameter curve fit.

IC50 | Structure (SMILES)
620 nM | Cc1ccc(C)c2c(N(C(=O)c3ccc(-c4cn(C)nn4)cc3)[C@@H]3CCCNC3)nccc12 [Example 861, N-(5,8-dimethyl-1-isoquinolyl)-4-(1-methyltriazol-4-yl)-N-[(3R)-3-piperidyl]benzamide]
4000 nM | COc1c(F)ccc2c(N(C(=O)c3ccc(-c4cn(C)nn4)cc3F)[C@@H]3CCCNC3)nccc12 [Example 874, 2-fluoro-N-(6-fluoro-5-methoxy-1-isoquinolyl)-4-(1-methyltriazol-4-yl)-N-[(3R)-3-piperidyl] benzamide]
1900 nM | NS(=O)(=O)c1cccc(-c2cc3c(N(C(=O)c4ccc(-n5nnc6cccnc65)cc4F)[C@@H]4CCCNC4)nccc3s2)c1 [Example 446, 2-fluoro-N-[(3R)-3-piperidyl]-N-[2-(3-sulfamoylphenyl)thieno[3,2-c]pyridin-4-yl]-4-(triazolo[4,5-b]pyridin-3-yl)benzamide]
1300 nM | Cc1nnc(-c2ccc(C(=O)N(c3nccc4sc(C#CCCO)cc34)[C@@H]3CCCNC3)c(F)c2)s1 [Example 818, (R)-2-fluoro-N-(2-(4-hydroxybut-1-yn-1-yl)thieno[3,2-c]pyridin-4-yl)-4-(5-methyl-1,3,4-thiadiazol-2-yl)-N-(piperidin-3-yl)benzamide]
540 nM | Cn1cc(-c2ccc(C(=O)N(c3nccc4sc(-c5cccc(C(N)=O)c5)cc34)[C@@H]3CCCNC3)c(F)c2)nn1 [Example 480, N-[2-(3-carbamoylphenyl)thieno [3,2-c]pyridin-4-yl]-2-fluoro-4-(1-methyltriazol-4-yl)-N-[(3R)-3-piperidyl] benzamide]
520 nM | COc1cccc(-c2cc3c(N(C(=O)c4ccc(-n5nnc6cccnc65)cc4F)[C@@H]4CCCNC4)nccc3s2)c1 [Example 385, (R)-4-(3H-[1,2,3]triazolo[4,5-b]pyridin-3-yl)-2-fluoro-N-(2-(3-methoxyphenyl)thieno[3,2-c]pyridin-4-yl)-N-(piperidin-3-yl)benzamide]
200 nM | O=C(c1ccc(-n2nnc3cccnc32)cc1F)N(c1nccc2sc(-c3cccc(O)c3)cc12)[C@@H]1CCCNC1 [Example 381, 2-fluoro-N-[2-(3-hydroxyphenyl)thieno[3,2-c]pyridin-4-yl]-N-[(3R)-3-piperidyl]-4-(triazolo[4,5-b]pyridin-3-yl)benzamide]
150 nM | Cc1cn(-c2ccc(C(=O)N(c3nccc4cccc(Cl)c34)[C@@H]3CCCNC3)c(F)c2)nn1 [Example 393, (R)—N-(8-chloroisoquinolin-1-yl)-2-fluoro-4-(4-methyl-1H-1,2,3-triazol-1-yl)-N-(piperidin-3-yl)benzamide]
800 nM | CCOC(=O)/C=C/c1cc2c(N(C(=O)c3ccc(-n4nnc5cccnc54)cc3F)[C@@H]3CCCNC3)nccc2s1 [Example 501, ethyl (E)-3-[4-[[2-fluoro-4-(triazolo[4,5-b]pyridin-3-yl)benzoyl]-[(3R)-3-piperidyl]amino]thieno[3,2-c]pyridin-2-yl]prop-2-enoate]
230 nM | N#Cc1ccc(-c2cc3c(N(C(=O)c4ccc(-n5nnc6cccnc65)cc4F)[C@@H]4CCCNC4)nccc3s2)s1 [Example 425, N-[2-(5-cyano-2-thienyl)thieno[3,2-c]pyridin-4-yl]-2-fluoro-N-[(3R)-3-piperidyl]-4-(triazolo[4,5-b]pyridin-3-yl)benzamide]
1000 nM | NC(=O)/C=C/c1cc2c(N(C(=O)c3ccc(-n4nnc5cccnc54)cc3F)[C@@H]3CCCNC3)nccc2s1 [Example 442, N-[2-[(E)-3-amino-3-oxo-prop-1-enyl]thieno[3,2-c]pyridin-4-yl]-2-fluoro-N-[(3R)-3-piperidyl]-4-(triazolo[4,5-b]pyridin-3-yl)benzamide]
29 nM | CCn1cc(-c2ccc(C(=O)N(c3nccc4cc(OC)cc(C)c34)[C@@H]3CCCNC3)c(F)c2)nn1 [Example 863, 4-(1-ethyltriazol-4-yl)-2-fluoro-N-(6-methoxy-8-methyl-1-isoquinolyl)-N-[(3R)-3-piperidyl] benzamide]
200 nM | Cc1cccc2ccnc(N(C(=O)c3ccc(-c4cn(C)nn4)cn3)[C@@H]3CCCNC3)c12 [Example 809, (R)-5-(1-methyl-1H-1,2,3-triazol-4-yl)-N-(8-methylisoquinolin-1-yl)-N-(piperidin-3-yl)picolinamide]

More lines, now with the values behind:

Structure (SMILES) | IC50
Cc1cc(F)cc2ccnc(N(C(=O)c3ccc(-c4nnn(C)c4C)cc3)[C@@H]3CCCNC3)c12 [Example 770, (R)-4-(1,5-dimethyl-1H-1,2,3-triazol-4-yl)-N-(6-fluoro-8-methylisoquinolin-1-yl)-N-(piperidin-3-yl)benzamide] | 430 nM
Cc1cccc2ccnc(N(C(=O)c3ccc(Nc4nccc(N5[C@H](C)COC[C@H]5C)n4)cc3F)[C@@H]3CCCNC3)c12 [Example 939, 4-((4-((3R,5R)-3,5-dimethylmorpholino)pyrimidin-2-yl)amino)-2-fluoro-N-(8-methylisoquinolin-1-yl)-N—((R)-piperidin-3-yl)benzamide] | 69 nM
Cc1nnc(-c2ccc(C(=O)N(c3nccc4c(C)ccc(C)c34)[C@@H]3CCCNC3)cn2)s1 [Example 897, N-(5,8-dimethyl-1-isoquinolyl)-6-(5-methyl-1,3,4-thiadiazol-2-yl)-N-[(3R)-3-piperidyl] pyridine-3-carboxamide] | 140 nM
COc1ccnc(Nc2ccc(C(=O)N(c3nccc4cccc(C)c34)[C@@H]3CCCNC3)c(F)c2)n1 [Example 951, 2-fluoro-4-[(4-methoxypyrimidin-2-yl)amino]-N-(8-methylisoquinolin-1-yl)-N-[(3R)-piperidin-3-yl]benzamide] | 100 nM
Cc1ncnc(C)c1-c1ccc(C(=O)N(c2nccc3cccc(C)c23)[C@@H]2CCCNC2)c(F)c1 [Example 354, 4-(4,6-dimethylpyrimidin-5-yl)-2-fluoro-N-(8-methyl-1-isoquinolyl)-N-[(3R)-3-piperidyl]benzamide] | 970 nM
Cc1cccc2ccnc(N(C(=O)N3CCC(c4cn(C)nn4)CC3)[C@@H]3CCCNC3)c12 [Example 347, N-(8-methyl-1-isoquinolyl)-4-(1-methyltriazol-4-yl)-N-[(3R)-3-piperidyl]piperidine-1-carboxamide] | 300 nM
Cc1cccc2ccnc(N(C(=O)c3ccc(Nc4nccc(N5CCCC[C@H]5CO)n4)cc3F)[C@@H]3CCCNC3)c12 [Example 960, 2-fluoro-4-((4-((S)-2-(hydroxymethyl)piperidin-1-yl)pyrimidin-2-yl)amino)-N-(8-methylisoquinolin-1-yl)-N—((R)-piperidin-3-yl)benzamide] | 110 nM
Cc1cccc2ccnc(N(C(=O)c3ccc(Nc4nccc(N5CCC[C@@H](O)C5)n4)cc3F)[C@@H]3CCCNC3)c12 [Example 623, 2-fluoro-4-((4-((R)-3-hydroxypiperidin-1-yl)pyrimidin-2-yl)amino)-N-(8-methylisoquinolin-1-yl)-N—((R)-piperidin-3-yl)benzamide] | 30 nM
Cc1nnc(-c2ccc(C(=O)N(c3nccc4cccc(C)c34)[C@@H]3CCCNC3)cn2)s1 [Example 622, (R)-6-(5-methyl-1,3,4-thiadiazol-2-yl)-N-(8-methylisoquinolin-1-yl)-N-(piperidin-3-yl)nicotinamide] | 170 nM
Cc1cccc2ccnc(N(C(=O)c3ccc(Nc4nccc(-c5ccccc5)n4)cc3F)[C@@H]3CCCNC3)c12 [Example 559, (R)-2-fluoro-N-(8-methylisoquinolin-1-yl)-4-((4-phenylpyrimidin-2-yl)amino)-N-(piperidin-3-yl)benzamide] | 34 nM
